Each structure is given as a SMILES string.

In the first series the target is human-sourced α-glucosidase recombinant expressed in Saccharomyces cerevisiae. The experiment in a line: α-glucosidase inhibitory assay (pNPG substrate). The series is classed as biochemical. To be noted: PBS pH 6.8, 37 °C, absorbance at 405 nm, preliminarily investigated, read-out: α-glucosidase inhibition IC50. The procedure:
The α-glucosidase inhibitory activity of 1–13 was preliminarily investigated.
The sample was dissolved in sodium phosphate buffer (PBS, pH 6.8) at three concentrations. 10 μL of the sample solution, 20 μL of 2.5 mM pNPG solution (in phosphate buffer) and 20 μL of PBS were mixed in a 96-well microplate and incubated at 37 °C for 5 min. A volume of 10 μL of α-glucosidase diluted to 0.2 U/mL by 0.01 M PBS was then added to each well. After incubating at 37 °C for 15 min, the absorbance at 405 nm was recorded by a Spectra max 190 micro plate reader (Molecular Devices Inc., San Jose, CA, USA). The blank was prepared by adding phosphate buffer instead of the α-glucosidase and the positive control was acarbose. […] The inhibition (%) was calculated as [1 − (ODdrug/ODblank)] × 100%.
For `COc1cc(O)c2c(=O)occ(C(O)CO)c2c1` (stereo not shown) [Compound 5, Myrothelactone A], the IC50 (commonly the concentration needed to halve the response being measured) stood at 320 µM.
Regarding `CC(=O)O[C@H]1[C@H](O)C[C@@]2(C)[C@@H](CC[C@@H](C)[C@]23Cc2c(cc(CO)c(C=O)c2O)O3)C1(C)C` [Compound 2, Myrothecisin B], the IC50 is 660 µM.
`COc1cc(O)c2c(=O)occ(C(=O)CO)c2c1` [Compound 7, Myrothelactone C]: the IC50 was found to be 36 µM.
In the case of `C[C@H]1O[C@H](O[C@H]2[C@H](O)[C@@H](O)[C@@H](O[C@H]3[C@H](O)[C@@H](O)C(O)O[C@@H]3CO)O[C@@H]2CO)[C@H](O)[C@@H](O)[C@@H]1N[C@H]1C=C(CO)[C@@H](O)[C@H](O)[C@H]1O` (stereo partly shown) [acarbose, reference compound], the IC50 amounted to 470 µM.
In the case of `CC(=O)O[C@@H]1C[C@@]2(C)[C@@H](CC[C@@H](C)[C@]23Cc2c(cc(CO)c(C=O)c2O)O3)C(C)(C)[C@H]1O` [Compound 1, Myrothecisin A], the IC50 came out at 500 µM.
As for `Cc1c(CO)oc(=O)c2c(O)cc(O)cc12` [Compound 10, acremonone G], the IC50 was determined as 370 µM.
On to `C[C@@H]1CC[C@@H]2C(=CC[C@H](O)C2(C)C)[C@]1(C)Cc1c(O)cc(CO)c(C=O)c1O` [Compound 4, Myrothecisin D], for which the IC50 is 200 µM.
Turning to `CC(=O)O[C@H]1CC=C2[C@@H](CC[C@@H](C)[C@@]2(C)Cc2c(O)cc(CO)c(C=O)c2O)C1(C)C` [Compound 3, Myrothecisin C], the IC50 came out at 58 µM.
`COc1cc(O)c2c(=O)oc(CO)c(CO)c2c1` [Compound 9, tubakialactone B]: the IC50 turned out to be 26 µM.

System in the next series: not given
Assay: not given
Details: not given
For the molecule `COc1cc(O)c2c(=O)occ(C(=O)CO)c2c1` [Compound 7, Myrothelactone C], the melting point – broadly, the temperature of the solid-liquid transition – was 160 to 161 °C.

Source of the values: article PMC6213923, “Meroterpenoids and Isocoumarinoids from a Myrothecium Fungus Associated with Apocynum venetum” (Marine Drugs, 2018).
